Results as given in patent US20260034112A1, “MULTI-CYCLIC IRAK1 AND IRAK4 INHIBITING COMPOUNDS AND USES THEREOF” (CHILDREN'S HOSPITAL MEDICAL CENTER, priority 2022, published 2026).

System: THP1 cells
Type: cell-based, human
Conditions: CA-4948 vs DMSO in THP1 cells

Cc1cc(-c2nc(C(=O)Nc3cc4oc(N5CCOCC5)nc4nc3N3CC[C@@H](O)C3)co2)ccn1 [CA-4948, emavusertib]
Log(FC) of gene LOC101929243: 0.7647
Log(FC) of gene LOC101929264: 0.8417
Log(FC) of gene LOC101929280: 0.7936
Log(FC) of gene LOC101929661: 0.748
Log(FC) of gene LOC101929747: 0.6127
Log(FC) of gene LOC101929814: −0.8463
Log(FC) of gene LOC102467073: 0.73
Log(FC) of gene LOC102723589: 0.8153
Log(FC) of gene LOC102723616: 0.7122
Log(FC) of gene LOC102723714: 0.6674
Log(FC) of gene LOC102723959: 0.9881
Log(FC) of gene LOC102723975: 1.408
Log(FC) of gene LOC102724098: −0.6399
Log(FC) of gene LOC102724169: 0.726
Log(FC) of gene LOC102724217: 0.6865
Log(FC) of gene LOC102724235: 0.7375
Log(FC) of gene LOC102724248: 0.652
Log(FC) of gene LOC102724409: 1.429
Log(FC) of gene LOC102724528: −0.8481
Log(FC) of gene LOC102724545: 0.8513
Log(FC) of gene LPAR2: 0.7255
Log(FC) of gene M1AP: 0.7754
Log(FC) of gene MAMDC4: 0.628
Log(FC) of gene MBLAC1: −0.6134
Log(FC) of gene MDGA1: 0.7307
Log(FC) of gene METTL12: 0.6315
Log(FC) of gene MFI2-AS1: 0.5997
Log(FC) of gene MGC12916: −0.9124
Log(FC) of gene MGC16142: 0.5952
Log(FC) of gene MIR570: 1.064
Log(FC) of gene MIR1244-1: 0.6309
Log(FC) of gene MIR3187: 1.121
Log(FC) of gene MROH6: 0.8417
Log(FC) of gene MYLK-AS1: 1.091
Log(FC) of gene MYO7B: 0.6068
Log(FC) of gene NGFR: 0.8097
Log(FC) of gene NOL3: 0.6401
Log(FC) of gene NPFF: 0.6633
Log(FC) of gene NPIPA3: 1.643
Log(FC) of gene NPIPA8: 0.8183
Log(FC) of gene ORM1: 0.6834
Log(FC) of gene PAPPA2: 0.8397
Log(FC) of gene PAQR6: 0.6274
Log(FC) of gene PAX8: −0.6687
Log(FC) of gene PCBP3: 0.5937
Log(FC) of gene PCOLCE2: −0.6424
Log(FC) of gene PDE5A: 0.8121
Log(FC) of gene PDPN: 0.7486
Log(FC) of gene PITX2: 0.6882
Log(FC) of gene POLN: 1.016
Log(FC) of gene POTEE: 1.077
Log(FC) of gene PPIEL: 0.6279
Log(FC) of gene PPP1R13L: 0.6598
Log(FC) of gene PPP1R32: 0.5902
Log(FC) of gene PROB1: 0.6297
Log(FC) of gene PRR22: 1.272
Log(FC) of gene PRSS53: 0.79
Log(FC) of gene PSMG3-AS1: 0.6249
Log(FC) of gene PTGER1: 0.6218
Log(FC) of gene QRICH2: 0.9066
Log(FC) of gene RAPGEFL1: 0.6118
Log(FC) of gene RARRES3: 0.6342
Log(FC) of gene RASSF8-AS1: −0.6459
Log(FC) of gene RCN3: 0.6431
Log(FC) of gene RIMS2: −0.6856
Log(FC) of gene RN7SK: −0.7805
Log(FC) of gene RN7SL1: −0.6652
Log(FC) of gene RNU2-2P: −3.126
Log(FC) of gene RNU86: 0.6578
Log(FC) of gene RNU105A: −0.7199
Log(FC) of gene RP3-476K8.3: 0.6781
Log(FC) of gene RP11-261C10.3: −0.7243
Log(FC) of gene RP11-307C12.11: 0.6268
Log(FC) of gene RP11-344E13.3: 0.712
Log(FC) of gene RP11-454P21.1: 0.5869
Log(FC) of gene RP11-540A21.2: −0.8218
Log(FC) of gene RPPH1: −1.864
Log(FC) of gene RPS18P9: 0.9157
Log(FC) of gene RPSAP9: −0.6976
Log(FC) of gene RUFY4: 0.9698
Log(FC) of gene SAMD5: −0.6977
Log(FC) of gene SAMD13: −0.6418
Log(FC) of gene SAP25: 0.962
Log(FC) of gene SARM1: 0.783
Log(FC) of gene SCART1: 1.38
Log(FC) of gene SCN8A: 0.7836
Log(FC) of gene SCXB: 0.8721
Log(FC) of gene SEC31B: 0.7359
Log(FC) of gene SEMA3B: 0.6963
Log(FC) of gene SEMA3C: −0.6821
Log(FC) of gene SEMG1: −0.6203
Log(FC) of gene SERPINB2: −0.6225
Log(FC) of gene SIGLEC16: 0.7305
Log(FC) of gene SIM1: −0.8741
Log(FC) of gene SLC2A14: 0.5944
Log(FC) of gene SLC7A5P2: 0.8202
Log(FC) of gene SLC7A11: −0.9711
Log(FC) of gene SLC22A20: 0.7923
Log(FC) of gene SLC25A5-AS1: −0.5981
Log(FC) of gene SLCO2B1: −0.6999
Log(FC) of gene SLFNL1: 0.599
Log(FC) of gene SLFNL1-AS1: 0.7053
Log(FC) of gene SMA4: −0.6311
Log(FC) of gene SNORD3A: −1.579
Log(FC) of gene SNORD30: 1.062
Log(FC) of gene SNORD79: 0.5858
Log(FC) of gene SNX32: 0.6555
Log(FC) of gene SPATA41: 0.6171
Log(FC) of gene SPATC1: 1.175
Log(FC) of gene SPRED1: −0.6296
Log(FC) of gene SPTBN5: 1.272
Log(FC) of gene ST13P4: −0.623
Log(FC) of gene STX18-AS1: 0.8594
Log(FC) of gene STXBP5-AS1: 0.6561
Log(FC) of gene SYDE2: −0.6236
Log(FC) of gene SYTL2: 0.7254
Log(FC) of gene TCAM1P: 0.6669
Log(FC) of gene TEKT4P2: 0.8324
Log(FC) of gene TESPA1: 0.724
Log(FC) of gene TLR5: 0.7065
Log(FC) of gene TMEM9B-AS1: 0.8758
Log(FC) of gene TMEM86B: 0.6481
Log(FC) of gene TMEM145: 0.9943
Log(FC) of gene TMEM150A: −0.8108
Log(FC) of gene TMEM175: 0.6594
Log(FC) of gene TMEM191A: 0.6824
Log(FC) of gene TMEM254-AS1: 0.767
Log(FC) of gene TMEM255A: −0.5904
Log(FC) of gene TMPRSS13: 0.6639
Log(FC) of gene TNFAIP8L2-SCNM1: −1.749
Log(FC) of gene TNXB: 1.806
Log(FC) of gene TP53I3: 0.7187
Log(FC) of gene TPD52L1: 0.7014
Log(FC) of gene TRIM72: 0.5946
Log(FC) of gene TSKU: −0.6402
Log(FC) of gene TSPEAR-AS1: 0.5855
Log(FC) of gene TTC4: −0.6304
Log(FC) of gene TUBA1A: 0.5916
Log(FC) of gene TXLNB: 0.8051
Log(FC) of gene UCN: 1.177
Log(FC) of gene UCP3: 0.6963
Log(FC) of gene ULK4P1: −0.9282
Log(FC) of gene UNC5CL: 0.8031
Log(FC) of gene VAMP5: 0.6392
Log(FC) of gene VWA7: 0.8656
Log(FC) of gene WDFY3-AS2: 0.6617
Log(FC) of gene WNK4: 1.507
Log(FC) of gene WT1-AS: 0.6396
Log(FC) of gene YJEFN3: 1.024
Log(FC) of gene ZCWPW2: −0.722
Log(FC) of gene ZDHHC11: 1.406
Log(FC) of gene ZNF284: −0.5982
Log(FC) of gene ZNF491: 0.7713
Log(FC) of gene ZNF891: −0.7965
Log(FC) of gene ZP3: 0.9339
Log(FC) of gene ZSWIM8-AS1: 0.9316
